Data on five compounds can be found in patent US20090124635A1, “CHEMICAL COMPOUNDS” (priority 2005, published 2009).

For the experiment, the system named is HIV-1 fusion. The experiment in a line: gp160 induced cell-cell fusion assay (HeLa P4 / CHO-Tat10 cell lines). It is filed as cell-based. Conditions: Human immunodeficiency virus 1, HeLaP4, read-out: IC50 against HIV-1 fusion. As to the method:
The gp160 induced cell-cell fusion assay uses a HeLa P4 cell line and a CHO-Tat10 cell line.
The HeLa P4 cell line expresses CCR5 and CD4 and has been transfected with HIV-1 LTR-β-Galactosidase. The media for this cell line is Dulbecco modified eagle's medium (D-MEM) (without L-glutamine) containing 10% foetal calf serum (FCS), 2 mM L-glutamine penicillin/streptomycin (Pen/Strep; 100 U/mL penicillin+[…] streptomycin), and 1 μg/ml puromycin.
The CHO cell line is a Tat (transcriptional trans activator)-expressing clone from a CHO JRR17.1 cell line that has been transfected with pTat puro plasmid. The media for this cell line is rich medium for mammalian cell culture originally developed at Roswell Park Memorial Institute RPMI1640 (without L-glutamine) containing 10% FCS, 2 mM L-glutamine, 0.5 mg/ml Hygromycin B and 12 μg/ml puromycin. The CHO JRR17.1 line expresses gp160 (JRFL) and is a clone that has been selected for its ability to fuse with a CCR5/CD4 expressing cell line.
Upon cell fusion, Tat present in the CHO cell is able to transactivate the HIV-1 long terminal repeat (LTR) present in the HeLa cell leading to the expression of the β-Galactosidase enzyme. This expression is then measured using a Fluor Ace™ β-Galactosidase reporter assay kit (Bio-Rad cat no. 170-3150). This kit is a quantitative fluorescent assay that determines the level of expression of β-galactosidase using 4-methylumbelliferul-galactopyranoside (MUG) as substrate. β-Galactosidase hydrolyses the fluorogenic substrate resulting in release of the fluorescent molecule 4-methylumbelliferone (4MU). Fluorescence of 4-methylumbelliferone is then measured on a fluorometer using an excitation wavelength of 360 nm and emission wavelength of 460 nm.
Compounds that inhibit fusion will give rise to a reduced signal and, following solubilisation in an appropriate solvent and dilution in culture medium, a dose-response curve for each compound can be used to calculate IC50 values.
As for `Cc1ccnc(C)c1C(=O)N1CCC(C)(N2CCC(N(Cc3ccccc3)C(=O)C3CC(F)(F)C3)CC2)CC1` [Example 1, N-benzyl-N-{1′-[(2,4-dimethylpyridin-3-yl)carbonyl]-4′-methyl-1,4′-bipiperidinyl-4-yl}-3,3-difluorocyclobutanecarboxamide], the half-inhibitory concentration (IC50) was determined as 0.013 nM.
Under `Cc1ncnc(C)c1C(=O)N1C[C@H]2CC[C@@H](C1)[C@H]2N1CCC(N(Cc2ccccc2)C(=O)C2CC2)CC1` [Example 10, N-benzyl-N-(1-{(8-syn)-3-[(4,6-dimethylpyrimidin-5-yl)carbonyl]-3-azabicyclo}piperidin-4-yl)cyclopropanecarboxamide] stands 516 nM.
For the compound `Cc1ncnc(C)c1C(=O)N1CCC(C)(N2CCC(N(Cc3ccccc3F)C(=O)C3CC(F)(F)C3)CC2)CC1` [Example 25, N-{1′-[(4,6-dimethylpyrimidin-5-yl)carbonyl]-4′-methyl-1,4′-bipiperidin-4-yl}-3,3-difluoro-N-(2-fluorobenzyl)cyclobutanecarboxamide], the 50% inhibitory concentration (IC50) came out at 5.5 nM.
Under `Cc1ncnc(C)c1C(=O)N1CCC(C)(N2CCC(N(Cc3ccccc3)S(C)(=O)=O)CC2)CC1` [Example 29, N-benzyl-N-{1′-[(4,6-dimethylpyrimidin-5-yl)carbonyl]-4′-methyl-1,4′-bipiperidin-4-yl}methanesulfonamide] stands 346 nM; under `Cc1ccnc(C)c1C(=O)N1CCC(C)(N2CCC(N(Cc3cccc(F)c3)C(=O)C3CC3)CC2)CC1` [Example 47, N-{1′-[(2,4-dimethylpyridin-3-yl)carbonyl]-4′-methyl-1,4′-bipiperidin-4-yl}-N-(3-fluorobenzyl)cyclopropanecarboxamide.2HCl], 0.343 nM.

One may read the IC50 as the concentration that gives 50% inhibition.
